Legend:
Assay type in all cases: in vivo
[1] = system: lambsquarters (Chenopodium album); assay: Test C preemergence; conditions: for Plant response rating (0 to 100), Lambsquarters: Rate 250 g/ha, visual evaluation after 12 to 14 days
How it was run: (§1)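 Visual injury scores of 0–100, with 100 meaning complete control, were given relative to controls after 12–14 days in the greenhouse. Treatments used a surfactant-containing non-phytotoxic solvent formulation, sprayed on seeded pots preemergence or on 1–4-leaf plants of 2–18 cm postemergence.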

[2] = system: common ragweed (Ambrosia elatior); assay: Test C preemergence; conditions: for Plant response rating (0 to 100), Ragweed, Common: Rate 250 g/ha, visual evaluation after 12 to 14 days
How it was run: as §1

[3] = system: cocklebur (Xanthium strumarium); assay: Test C preemergence; conditions: for Plant response rating (0 to 100), Cocklebur: Rate 250 g/ha, visual evaluation after 12 to 14 days
How it was run: as §1

Nightshade = assay: Test C preemergence
[4] = system: woolly cupgrass (Eriochloa villosa); assay: Test C preemergence; conditions: for Plant response rating (0 to 100), Cupgrass, Woolly: Rate 250 g/ha, visual evaluation after 12 to 14 days
How it was run: as §1

soybean (Glycine max) = assay: Test C preemergence; conditions: for Plant response rating (0 to 100), Soybean: Rate 250 g/ha, visual evaluation after 12 to 14 days
How it was run: as §1

[5] = system: crabgrass (Digitaria sanguinalis); assay: Test C preemergence; conditions: for Plant response rating (0 to 100), Crabgrass: Rate 250 g/ha, visual evaluation after 12 to 14 days
How it was run: as §1

[6] = system: goosegrass (Eleusine indica); assay: Test C preemergence; conditions: for Plant response rating (0 to 100), Goosegrass: Rate 250 g/ha, visual evaluation after 12 to 14 days
How it was run: as §1

[7] = system: pigweed (Amaranthus retroflexus); assay: Test C preemergence; conditions: for Plant response rating (0 to 100), Pigweed: Rate 250 g/ha, visual evaluation after 12 to 14 days
How it was run: as §1

[8] = system: Surinam grass (Brachiaria decumbens); assay: Test C preemergence; conditions: for Plant response rating (0 to 100), Surinam grass: Rate 250 g/ha, visual evaluation after 12 to 14 days
How it was run: as §1

[9] = system: lambsquarters (Chenopodium album); assay: Test B preemergence; conditions: scale 0 to 100, 0 no effect, 100 complete control
How it was run: (§2)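 Seeds were planted and sprayed preemergence with test chemical in a non-phytotoxic solvent mixture containing surfactant; postemergence plants (2 to 18 cm, 1- to 4-leaf stage) received the same formulation. Greenhouse hold 13 to 15 days, then visual rating versus untreated controls on a 0–100 scale (0 no effect, 100 complete control).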

[10] = system: velvetleaf (Abutilon theophrasti); assay: Test B preemergence; conditions: Preemergence, Rate 500 g/ha; scale 0 to 100, 0 no effect, 100 complete control
How it was run: as §2

[11] = system: giant foxtail (Setaria faberii); assay: Test B preemergence; conditions: scale 0 to 100, 0 no effect, 100 complete control
How it was run: as §2

[12] = system: cocklebur (Xanthium strumarium); assay: Test B preemergence; conditions: scale 0 to 100, 0 no effect, 100 complete control
How it was run: as §2

[13] = system: barnyardgrass (Echinochloa crus-galli); assay: Test B preemergence; conditions: scale 0 to 100, 0 no effect, 100 complete control
How it was run: as §2

[14] = system: crabgrass (Digitaria sanguinalis); assay: Test B preemergence; conditions: scale 0 to 100, 0 no effect, 100 complete control
How it was run: as §2

corn (Zea mays) = assay: Test B preemergence; conditions: scale 0 to 100, 0 no effect, 100 complete control
How it was run: as §2

rice (Oryza saliva) = assay: Test B preemergence; conditions: Preemergence, Rate 500 g/ha; scale 0 to 100, 0 no effect, 100 complete control
How it was run: as §2

[15] = system: morning glory (Ipomoea hederacea); assay: Test B preemergence; conditions: Preemergence, Rate 500 g/ha; scale 0 to 100, 0 no effect, 100 complete control
How it was run: as §2

[16] = system: pigweed (Amaranthus retroflexus); assay: Test B preemergence; conditions: Preemergence, Rate 500 g/ha; scale 0 to 100, 0 no effect, 100 complete control
How it was run: as §2

[17] = system: Surinam grass (Brachiaria decumbens); assay: Test B preemergence; conditions: scale 0 to 100, 0 no effect, 100 complete control
How it was run: as §2

[18] = Rate 62 g/ha, scale 0 to 100, 0 no effect, 100 complete control
[19] = preemergence, Rate 31 g/ha, scale 0 to 100
[20] = preemergence, Rate 125 g/ha, scale 0 to 100, 0 no effect, 100 complete control
[21] = Rate 125 g/ha, scale 0 to 100, 0 no effect, 100 complete control
[22] = Preemergence, Rate 500 g/ha, scale 0 to 100

O=C1C(n2ccc(C3CCC3)n2)SCN1c1cccc(C(F)(F)F)c1 (stereo not drawn) [Compound 37]
Plant response rating, Lambsquarters [1, 18]: 100 | Plant response rating, Lambsquarters [1, 19]: 100 | Plant response rating (0 to 100), Lambsquarters ([1]; preemergence): 100 | Plant response rating, Lambsquarters [1, 20]: 100 | Plant response rating, Ragweed, Common [2, 18]: 0 | Plant response rating, Ragweed, Common [2, 19]: 0 | Plant response rating (0 to 100), Ragweed, Common ([2]; preemergence): 60 | Plant response rating, Ragweed, Common [2, 20]: 20 | Plant response rating, Cocklebur [3, 19]: 0 | Plant response rating (0 to 100), Cocklebur ([3]; preemergence): 0 | Plant response rating, Cocklebur [3, 20]: 0 | Plant response rating, Nightshade (Nightshade; Rate 31 g/ha, scale 0 to 100): 0 | Plant response rating, Nightshade (Nightshade; [18]): 0 | Plant response rating, Nightshade (Nightshade; [21]): 0 | Plant response rating, Cupgrass, Woolly [4, 18]: 0 | Plant response rating, Cupgrass, Woolly [4, 19]: 0 | Plant response rating (0 to 100), Cupgrass, Woolly ([4]; preemergence): 100 | Plant response rating, Cupgrass, Woolly [4, 20]: 0 | Plant response rating, Soybean (soybean (Glycine max); [18]): 0 | Plant response rating, Soybean (soybean (Glycine max); [19]): 0 | Plant response rating (0 to 100), Soybean (soybean (Glycine max); preemergence): 50 | Plant response rating, Crabgrass [5, 18]: 90 | Plant response rating, Crabgrass [5, 19]: 80 | Plant response rating (0 to 100), Crabgrass ([5]; preemergence): 100 | Plant response rating, Crabgrass [5, 20]: 90 | Plant response rating, Goosegrass [6, 18]: 90 | Plant response rating, Goosegrass [6, 19]: 60 | Plant response rating (0 to 100), Goosegrass ([6]; preemergence): 100 | Plant response rating, Goosegrass [6, 20]: 90 | Plant response rating, Pigweed [7, 18]: 0 | Plant response rating, Pigweed [7, 19]: 0 | Plant response rating (0 to 100), Pigweed ([7]; preemergence): 100 | Plant response rating, Pigweed [7, 20]: 0 | Plant response rating, Surinam grass [8, 18]: 0 | Plant response rating, Surinam grass [8, 19]: 0 | Plant response rating (0 to 100), Surinam grass ([8]; preemergence): 90 | Plant response rating, Surinam grass [8, 20]: 0 | Plant response rating, Lambsquarters ([9]; Preemergence, Rate 500 g/ha): 100 | Plant response rating, Lambsquarters ([9]; preemergence, Rate 125 g/ha): 100 | Plant response rating, Velvetleaf [10]: 0 | Plant response rating, Foxtail, Giant ([11]; Preemergence, Rate 500 g/ha): 100 | Plant response rating, Foxtail, Giant ([11]; preemergence, Rate 125 g/ha): 40 | Plant response rating, Cocklebur ([12]; preemergence, Rate 125 g/ha): 0 | Plant response rating, Barnyardgrass ([13]; Preemergence, Rate 500 g/ha): 100 | Plant response rating, Barnyardgrass ([13]; preemergence, Rate 125 g/ha): 0 | Plant response rating, Crabgrass ([14]; Preemergence, Rate 500 g/ha): 100 | Plant response rating, Crabgrass ([14]; preemergence, Rate 125 g/ha): 0 | Plant response rating, Corn (corn (Zea mays); Preemergence, Rate 500 g/ha): 0 | Plant response rating, Corn (corn (Zea mays); preemergence, Rate 125 g/ha): 0 | Plant response rating, Rice (rice (Oryza saliva)): 0 | Plant response rating, Morningglory [15]: 0 | Plant response rating, Pigweed [16]: 100 | Plant response rating, Surinam grass ([17]; Preemergence, Rate 500 g/ha): 0 | Plant response rating, Surinam grass ([17]; preemergence, Rate 125 g/ha): 0

CC(C)c1ccn(C2SCN(c3cccc(OC(F)(F)F)c3)C2=O)n1 (stereo not drawn) [Compound 31]
Plant response rating, Lambsquarters [1, 22]: 100 | Plant response rating, Lambsquarters [1, 18]: 100 | Plant response rating (0 to 100), Lambsquarters ([1]; preemergence): 100 | Plant response rating, Lambsquarters [1, 20]: 100 | Plant response rating, Ragweed, Common [2, 22]: 100 | Plant response rating, Ragweed, Common [2, 18]: 30 | Plant response rating (0 to 100), Ragweed, Common ([2]; preemergence): 90 | Plant response rating, Ragweed, Common [2, 20]: 90 | Plant response rating, Cocklebur [3, 22]: 30 | Plant response rating, Cocklebur [3, 18]: 0 | Plant response rating (0 to 100), Cocklebur ([3]; preemergence): 30 | Plant response rating, Cocklebur [3, 20]: 0 | Plant response rating, Nightshade (Nightshade; [18]): 80 | Plant response rating, Nightshade (Nightshade; [21]): 90 | Plant response rating, Nightshade (Nightshade; Rate 500 g/ha, scale 0 to 100): 100 | Plant response rating, Cupgrass, Woolly [4, 22]: 100 | Plant response rating, Cupgrass, Woolly [4, 18]: 50 | Plant response rating (0 to 100), Cupgrass, Woolly ([4]; preemergence): 90 | Plant response rating, Cupgrass, Woolly [4, 20]: 60 | Plant response rating, Soybean (soybean (Glycine max); [22]): 0 | Plant response rating, Soybean (soybean (Glycine max); [18]): 0 | Plant response rating (0 to 100), Soybean (soybean (Glycine max); preemergence): 0 | Plant response rating, Soybean (soybean (Glycine max); [20]): 0 | Plant response rating, Crabgrass [5, 22]: 100 | Plant response rating, Crabgrass [5, 18]: 100 | Plant response rating (0 to 100), Crabgrass ([5]; preemergence): 100 | Plant response rating, Crabgrass [5, 20]: 100 | Plant response rating, Goosegrass [6, 22]: 100 | Plant response rating, Goosegrass [6, 18]: 100 | Plant response rating (0 to 100), Goosegrass ([6]; preemergence): 100 | Plant response rating, Goosegrass [6, 20]: 100 | Plant response rating, Pigweed [7, 22]: 90 | Plant response rating, Pigweed [7, 18]: 30 | Plant response rating (0 to 100), Pigweed ([7]; preemergence): 80 | Plant response rating, Pigweed [7, 20]: 100 | Plant response rating, Surinam grass [8, 22]: 70 | Plant response rating, Surinam grass [8, 18]: 50 | Plant response rating (0 to 100), Surinam grass ([8]; preemergence): 60 | Plant response rating, Surinam grass [8, 20]: 50 | Plant response rating, Lambsquarters ([9]; Preemergence, Rate 500 g/ha): 100 | Plant response rating, Lambsquarters ([9]; preemergence, Rate 125 g/ha): 100 | Plant response rating, Velvetleaf [10]: 0 | Plant response rating, Foxtail, Giant ([11]; Preemergence, Rate 500 g/ha): 90 | Plant response rating, Foxtail, Giant ([11]; preemergence, Rate 125 g/ha): 30 | Plant response rating, Cocklebur ([12]; Preemergence, Rate 500 g/ha): 0 | Plant response rating, Cocklebur ([12]; preemergence, Rate 125 g/ha): 0 | Plant response rating, Barnyardgrass ([13]; Preemergence, Rate 500 g/ha): 100 | Plant response rating, Barnyardgrass ([13]; preemergence, Rate 125 g/ha): 100 | Plant response rating, Crabgrass ([14]; Preemergence, Rate 500 g/ha): 100 | Plant response rating, Crabgrass ([14]; preemergence, Rate 125 g/ha): 100 | Plant response rating, Corn (corn (Zea mays); Preemergence, Rate 500 g/ha): 0 | Plant response rating, Corn (corn (Zea mays); preemergence, Rate 125 g/ha): 0 | Plant response rating, Rice (rice (Oryza saliva)): 0 | Plant response rating, Morningglory [15]: 0 | Plant response rating, Pigweed [16]: 100 | Plant response rating, Surinam grass ([17]; Preemergence, Rate 500 g/ha): 70 | Plant response rating, Surinam grass ([17]; preemergence, Rate 125 g/ha): 30

Source: US7138361B2, “Herbicidal heterocycles” (E. I. du Pont de Nemours and Company, priority 2000, dated 2006)
